Where two headings read alike, the source gives them in different places.
Assays:
native rhodanese = target: T1, native rhodanese (Bos taurus, UniProt P00586); assay: native rhodanese enzymatic activity counter-screen; format: biochemical
T1 sequence (P00586 1-297): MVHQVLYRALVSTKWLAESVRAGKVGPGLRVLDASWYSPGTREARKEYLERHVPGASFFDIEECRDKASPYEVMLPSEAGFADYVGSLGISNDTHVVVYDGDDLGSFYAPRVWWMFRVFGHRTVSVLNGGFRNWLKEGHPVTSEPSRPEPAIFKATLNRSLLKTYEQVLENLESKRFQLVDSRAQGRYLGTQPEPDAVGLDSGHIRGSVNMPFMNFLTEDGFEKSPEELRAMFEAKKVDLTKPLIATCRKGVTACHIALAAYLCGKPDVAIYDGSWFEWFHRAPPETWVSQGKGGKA
Procedure: Counter-screening compounds for inhibition of native rhodanese enzymatic activity. Reagent Preparations & Assay Protocol: Reagents were identical to those used in the GroEL/ES-dRho refolding assay described above; however, the assay protocol differed in the sequence of compound addition to the wells. Compounds were pin-transferred after 50 minute incubation for the refolding cycle, but prior to the addition of the thiocyanate enzymatic assay stock. Thus, the refolding reactions were allowed to proceed for 50 min at 37° C. in the absence of test compounds, but the enzymatic activity of the refolded rhodanese reporter enzyme was monitored in the presence of test compounds (inhibitor concentration range during the enzymatic reporter reaction is 100 μM to 46 nM—3-fold dilutions). IC50 values for the rhodanese reporter enzyme were determined as described above. Results presented represent the averages of IC50 values obtained from at least four replicates.
All compounds were counter-screened for inhibiting the enzymatic activity of the native Rho reporter enzyme as per our previously reported procedure. Results presented represent the averages of IC50 values obtained from at least four replicates.

[1] = system: Staphylococcus aureus strain Seattle 1945 (ATCC #25923); assay: bacterial proliferation assay, S. aureus; format: cell-based; settings: Staphylococcus aureus, ATCC25923; read-out: Bacterial Proliferation EC50 S. aureus
Procedure: (§1) All compounds were evaluated for inhibiting the proliferation of E. coli and each of the ESKAPE bacteria. Results presented represent the averages of EC50 values obtained from at least four replicates. Evaluating compounds for inhibition of bacterial cell proliferation.
(§2) Growth Media: E. coli were grown with LB medium and all ESKAPE bacteria were grown in Brain Heart Infusion (BHI) medium (Becton, Dickinson and Company), with all liquid cultures supplemented with 25 mg/L Ca^2+ and 12.5 mg/L Mg^2+ to mimic physiological free concentrations of these cations. A 10 mg/mL Ca^2+ stock solution was prepared by dissolving 1.84 g of CaCl2.2H2O in 50 mL of deionized water, and a 10 mg/mL Mg^2+ stock solution was prepared by dissolving 4.18 g of MgCl2.6H2O in 50 mL deionized water—filter sterilized using 0.2 μm cellulose-acetate filters. 2.5 mL of the sterile 10 mg/mL Ca^2+ stock and 1.25 mL of the sterile 10 mg/mL Mg^2+ stock solutions were added per 1 L of autoclaved LB or BHI media to obtain 25 mg/L Ca^2+ and 12.5 mg/L Mg^2+ ions, respectively.
(§3) General Assay Protocol: Stock bacterial cultures were streaked onto LB or BHI agar plates and grown overnight at 37° C. Fresh aliquots of cation supplemented media were inoculated with single bacterial colonies and the cultures were grown overnight at 37° C. with shaking (240 rpm). The following morning, cultures were diluted 10-fold into fresh media and grown at 37° C. until bacteria had reached mid-log phase growth (OD600˜0.4-0.6). The cultures were then diluted into fresh media to achieve final OD600 readings of 0.017. Aliquots of these diluted cultures (30 μL) were added to clear, flat-bottom 384-well polystyrene plates that were previously stamped with 0.5 μL of test compounds in 20 μL of media (yielding initial OD600=0.01 bacterial cultures). All compounds were tested in dose-response with concentration ranges during the proliferation assays from 100 μM to 46 nM (3-fold dilution series). A second set of baseline control plates were prepared analogously, but without any bacteria added, to correct for possible compound absorbance and/or precipitation. […] Plates were then read at 600 nm using a Molecular Devices SpectraMax Plus384 microplate reader. […] Results presented represent the averages of EC50 values obtained from at least four replicates.
(§4) Evaluating analogs for inhibiting the growth of E. coli and the ESKAPE bacteria. Analogs were initially tested for antibacterial efficacy against representative strains of antibiotic-sensitive E. coli and the ESKAPE bacteria. To determine compound efficacy, bacterial proliferation assays were carried out in liquid media culture supplemented with physiological concentrations of free calcium and magnesium cations. For these assays, bacterial cultures (OD600=0.01) were exposed to test compounds in 8-point, 3-fold dilution series (100 μM to 46 nM concentration range), in 384-well plates. After addition of compounds to cultures, the plates were sealed with Breathe-Easy gas permeable membranes and allowed to grow to mid-log phase (OD600˜0.4-0.6), whereupon final OD600 readings were taken to assess for bacterial growth and inhibition.

[2] = system: Klebsiella pneumoniae strain NCTC 9633 (ATCC #13883); assay: bacterial proliferation assay, K. pneumoniae; format: cell-based; settings: for EC50: Klebsiella pneumoniae, read-out: Bacterial Proliferation EC50 K. pneumoniae
Procedure: as §1, §2, §3, §4

[3] = system: Acinetobacter baumannii strain 2208 (ATCC 19606); assay: bacterial proliferation assay, A. baumannii; format: cell-based; settings: ATCC19606, read-out: Bacterial Proliferation EC50 A. baumannii
Procedure: as §1, §2, §3, §4

[4] = system: NEB 5-alpha Escherichia coli; assay: bacterial proliferation assay, E. coli; format: cell-based; settings: for EC50: read-out: Bacterial Proliferation EC50 E. coli
Procedure: as §1, §2, §3, §4

[5] = compounds added after refolding, read-out: Native Rho Activity IC50

## CCOc1ccc(S(=O)(=O)Nc2ccc(C(=O)N/N=C/c3ccc([N+](=O)[O-])o3)cc2)cc1 [Compound 28, 4-ethoxy-N-(4-(2-((5-nitrofuran-2-yl)methylene)hydrazine-1-carbonyl)phenyl)benzenesulfonamide]
Native rhodanese; [5]
  IC50: 45 µM
[1]
  EC50: > 100 µM
[2]
  EC50: > 100 µM
[3]
  EC50: > 100 µM
[4]; Escherichia coli
  EC50: > 100 µM

## O=[N+]([O-])c1ccc(O)c2ncccc12 [Nitroxoline, reference compound]
Native rhodanese; [5]
  IC50: 2 µM
[1]
  EC50: 9.5 µM
[2]
  EC50: 2.8 µM
[3]
  EC50: 2.5 µM
[4]; Escherichia coli
  EC50: 4 µM

## O=C(N/N=C/c1cccc2ncccc12)c1ccccc1 [Compound 32, N′-(quinolin-5-ylmethylene)benzohydrazide]
Native rhodanese; [5]
  IC50: > 100 µM
[1]
  EC50: > 100 µM
[2]
  EC50: > 100 µM
[3]
  EC50: > 100 µM
[4]; Escherichia coli
  EC50: > 100 µM

## O=C1CN(/N=C/c2ccc(O)c3ncccc23)C(=O)N1 [Compound 2, 1-(((8-hydroxyquinolin-5-yl)methylene)amino)imidazolidine-2,4-dione]
Native rhodanese; [5]
  IC50: > 100 µM
[1]
  EC50: 37 µM
[2]
  EC50: > 100 µM
[3]
  EC50: > 100 µM
[4]; Escherichia coli
  EC50: 80 µM

## CCN(CC)S(=O)(=O)c1cccc(C(=O)N/N=C/c2ccc(O)c3ncccc23)c1 [Compound 12, N,N-diethyl-3-(2-((8-hydroxyquinolin-5-yl)methylene)hydrazine-1-carbonyl)benzenesulfonamide]
Native rhodanese; [5]
  IC50: 81 µM
[1]
  EC50: > 100 µM
[2]
  EC50: > 100 µM
[3]
  EC50: > 100 µM
[4]; Escherichia coli
  EC50: 99 µM

## O=Cc1ccc([N+](=O)[O-])o1 [Compound 41, reference compound]
Native rhodanese; [5]
  IC50: 32 µM
[1]
  EC50: 5.8 µM
[2]
  EC50: 10 µM
[3]
  EC50: 12 µM
[4]; Escherichia coli
  EC50: 9.5 µM

## O=C(N/N=C/c1ccc([N+](=O)[O-])o1)c1cccs1 [Compound 16, N′-((5-nitrofuran-2-yl)methylene)thiophene-2-carbohydrazide]
Native rhodanese; [5]
  IC50: > 100 µM
[1]
  EC50: 7.1 µM
[2]
  inhibition of K. pneumoniae in words: moderate inhibitors
  EC50: 16 µM
[3]
  EC50: 82 µM
[4]
  EC50: 0.42 µM

## O=C(N/N=C/c1ccc(O)c2ncccc12)c1ccc(Cl)s1 [Compound 4, 5-chloro-N′-((8-hydroxyquinolin-5-yl)methylene)thiophene-2-carbohydrazide]
Native rhodanese; [5]
  IC50: 14 µM
[1]
  EC50: 84 µM
[2]
  EC50: > 100 µM
[3]
  EC50: > 100 µM
[4]; Escherichia coli
  EC50: > 100 µM

## O=C(N/N=C/c1ccc(O)c2ccccc12)c1ccccc1 [Compound 30, N′-((4-hydroxynaphthalen-1-yl)methylene)benzohydrazide]
Native rhodanese; [5]
  IC50: 97 µM
[1]
  EC50: 88 µM
[2]
  EC50: > 100 µM
[3]
  EC50: > 100 µM
[4]; Escherichia coli
  EC50: > 100 µM

## COc1ccc(C(=O)N/N=C/c2ccc([N+](=O)[O-])o2)cc1 [Compound 20, 4-methoxy-N′-((5-nitrofuran-2-yl)methylene)benzohydrazide]
Native rhodanese; [5]
  IC50: > 100 µM
[1]
  EC50: 8.1 µM
[2]
  EC50: > 100 µM
[3]
  EC50: > 100 µM
[4]; Escherichia coli
  EC50: 1.9 µM

## COc1ccc(C(=O)N/N=C/c2cccc3ncccc23)cc1 [Compound 31, 4-methoxy-N′-(quinolin-5-ylmethylene)benzohydrazide]
Native rhodanese; [5]
  IC50: > 100 µM
[1]
  EC50: > 100 µM
[2]
  EC50: > 100 µM
[3]
  EC50: > 100 µM
[4]; Escherichia coli
  EC50: > 100 µM

## O=C1CN(/N=C/c2ccc([N+](=O)[O-])o2)C(=O)N1 [Nitrofurantoin, reference compound]
Native rhodanese
  IC50: > 100 µM
[1]
  EC50: 27 µM
[2]
  EC50: 40 µM
[3]
  EC50: > 100 µM
[4]
  inhibition of E. coli proliferation in words: potent inhibitors
[4]; Escherichia coli
  EC50: 0.69 µM

## COc1ccc(C(=O)N/N=C/c2cccc3ccccc23)cc1 [Compound 33, 4-methoxy-N′-(naphthalen-1-ylmethylene)benzohydrazide]
Native rhodanese; [5]
  IC50: > 100 µM
[1]
  EC50: > 100 µM
[2]
  EC50: > 100 µM
[3]
  EC50: > 100 µM
[4]; Escherichia coli
  EC50: > 100 µM

## CN(C)c1ccc(C(=O)N/N=C/c2ccc([N+](=O)[O-])o2)cc1 [Compound 21, 4-(dimethylamino)-N′-((5-nitrofuran-2-yl)methylene)benzohydrazide]
Native rhodanese; [5]
  IC50: > 100 µM
[1]
  EC50: 34 µM
[2]
  EC50: > 100 µM
[3]
  EC50: > 100 µM
[4]; Escherichia coli
  EC50: 10 µM

## O=C(N/N=C/c1ccccc1)c1ccccc1 [Compound 38, N′-benzylidenebenzohydrazide]
Native rhodanese; [5]
  IC50: > 100 µM
[1]
  EC50: > 100 µM
[2]
  EC50: > 100 µM
[3]
  EC50: > 100 µM
[4]; Escherichia coli
  EC50: > 100 µM

## O=C(N/N=C/c1ccc([N+](=O)[O-])o1)c1cccc(Oc2ccccc2)c1 [Compound 24, N′-((5-nitrofuran-2-yl)methylene)-3-phenoxybenzohydrazide]
Native rhodanese; [5]
  IC50: 65 µM
[1]
  EC50: 3.5 µM
[2]
  EC50: > 100 µM
[3]
  EC50: > 100 µM
[4]; Escherichia coli
  EC50: > 100 µM

## O=C(N/N=C/c1ccc(O)c2ncccc12)c1ccc(O)cc1 [Compound 7, 4-hydroxy-N′-((8-hydroxyquinolin-5-yl)methylene)benzohydrazide]
Native rhodanese; [5]
  IC50: 72 µM
[1]
  EC50: 48 µM
[2]
  EC50: 87 µM
[3]
  EC50: 71 µM
[4]; Escherichia coli
  EC50: 46 µM

## O=C(N/N=C/c1ccc([N+](=O)[O-])o1)c1ccncc1 [Compound 19, N′-((5-nitrofuran-2-yl)methylene)isonicotinohydrazide]
Native rhodanese; [5]
  IC50: 38 µM
[1]
  EC50: 9.5 µM
[2]
  EC50: 42 µM
[3]
  EC50: 54 µM
[4]; Escherichia coli
  EC50: 2.4 µM

## O=C(N/N=C/c1ccc([N+](=O)[O-])o1)c1cccc2ccccc12 [Compound 22, N′-((5-nitrofuran-2-yl)methylene)-1-naphthohydrazide]
Native rhodanese; [5]
  IC50: 45 µM
[1]
  EC50: 6 µM
[2]
  EC50: > 100 µM
[3]
  EC50: > 100 µM
[4]; Escherichia coli
  EC50: 41 µM

## O=C(N/N=C/c1cccc2ccccc12)c1ccccc1 [Compound 34, N′-(naphthalen-1-ylmethylene)benzohydrazide]
Native rhodanese; [5]
  IC50: > 100 µM
[1]
  EC50: > 100 µM
[2]
  EC50: > 100 µM
[3]
  EC50: > 100 µM
[4]; Escherichia coli
  EC50: > 100 µM

## O=C(N/N=C/c1ccc([N+](=O)[O-])o1)c1ccc(O)cc1 [Nifuroxazide, reference compound]
Native rhodanese
  IC50: 69 µM
[1]
  EC50: 16 µM
[2]
  EC50: 37 µM
[3]
  EC50: > 100 µM
[4]
  inhibition of E. coli proliferation in words: potent inhibitors
[4]; Escherichia coli
  EC50: 0.87 µM

## COc1ccc(C(=O)N/N=C/c2ccco2)cc1 [Compound 39, N′-(furan-2-ylmethylene)-4-methoxybenzohydrazide]
Native rhodanese; [5]
  IC50: > 100 µM
[1]
  EC50: > 100 µM
[2]
  EC50: > 100 µM
[3]
  EC50: > 100 µM
[4]; Escherichia coli
  EC50: > 100 µM

Reference: patent US20220009914A1, “Analogs of Nitrofuran Antibiotics to Combat Resistance” (The Trustees of Indiana University, priority 2020, published 2022)
